Test results: patent publication US20220106301A1, “ACETAMIDO-PHENYLBENZAMIDE DERIVATIVES AND METHODS OF USING THE SAME” (Athenex, Inc., priority 2020, published 2022)

Target: CYP3A4 (Homo sapiens, UniProt P08684)
Assay: Determination of CYP3A4 inhibitory activity (human liver microsome, Luciferin-IPA)
Details: CYP3A4 IC50 (nM), 37° C. 11 minutes
In short: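 Final compound concentrations 37, 111, 333, 1000 and 3000 nM; reaction at 37° C for 11 min, then luciferin detection reagent 5 min at room temperature with luminescence read-out. IC50 from nonlinear regression of dose-response.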

CYP3A4, sequence (P08684 whole entry): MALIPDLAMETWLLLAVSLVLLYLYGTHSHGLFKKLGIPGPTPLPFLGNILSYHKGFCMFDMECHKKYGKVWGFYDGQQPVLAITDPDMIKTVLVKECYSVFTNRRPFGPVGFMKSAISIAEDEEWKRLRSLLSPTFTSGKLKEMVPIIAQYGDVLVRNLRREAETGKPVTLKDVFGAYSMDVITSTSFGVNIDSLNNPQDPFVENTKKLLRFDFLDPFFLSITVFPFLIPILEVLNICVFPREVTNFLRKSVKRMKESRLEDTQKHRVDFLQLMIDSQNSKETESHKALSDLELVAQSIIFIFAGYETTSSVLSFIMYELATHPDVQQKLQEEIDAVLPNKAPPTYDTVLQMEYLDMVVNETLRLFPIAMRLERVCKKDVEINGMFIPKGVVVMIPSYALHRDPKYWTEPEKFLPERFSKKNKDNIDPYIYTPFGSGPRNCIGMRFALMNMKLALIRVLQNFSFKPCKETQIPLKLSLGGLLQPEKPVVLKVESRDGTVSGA

IC50 [nM] | Structure (SMILES)
> 1000 | COc1cc(NC(=O)c2cc(=O)c3ccccc3o2)c(C(=O)Nc2ccc(CCN(Cc3ccc4c(cnn4C)c3)Cc3ccc[n+]([O-])c3)cc2)cc1OC [Compound 225]
100 to 250 | CCN(CCc1ccc(NC(=O)c2cc(OC)c(OC)cc2NC(=O)c2cc(=O)c3ccccc3o2)cc1)Cc1cccc(-n2cnc(C)c2)c1 [Compound 107]
100 to 250 | COc1cc(NC(=O)c2cc(=O)c3ccccc3o2)c(C(=O)Nc2ccc(CCN(C)Cc3cccc(-n4ccnc4)c3)cc2)cc1OC [Compound 3]
100 to 250 | COc1cc(NC(=O)c2cc(=O)c3ccccc3o2)c(C(=O)Nc2ccc(CCN(Cc3cccc(-n4ccnc4)c3)Cc3ccc4c(c3)nnn4C)cc2)cc1OC [Compound 50]
> 1000 | CCN(CCc1ccc(NC(=O)c2cc(OC)c(OC)cc2NC(=O)c2cc(=O)c3ccccc3o2)cc1)Cc1ccc2[nH]ncc2c1 [Compound 184]
500 to 1000 | COc1cc(NC(=O)c2cc(=O)c3ccccc3o2)c(C(=O)Nc2ccc(CCN(C)Cc3cccc(-c4cccnc4)c3)cc2)cc1OC [Compound 7]
100 to 250 | COc1ccc(CN(CCc2ccc(NC(=O)c3cc(OC)c(OC)cc3NC(=O)c3cc(=O)c4ccccc4o3)cc2)Cc2cccc(-n3ccnc3)c2)cc1OC [Compound 27]
100 to 250 | COc1cc(NC(=O)c2cc(=O)c3ccccc3o2)c(C(=O)Nc2ccc(CCN(C)Cc3ccc(-n4ccnc4)c(OC)c3)cc2)cc1OC [Compound 87]
500 to 1000 | COc1cc(NC(=O)c2cc(=O)c3ccccc3o2)c(C(=O)Nc2ccc(CCN(C)Cc3cccc(-n4cnc(C)c4)c3)cc2)cc1OC [Compound 11]
250 to 500 | COc1cncc(CN(CCc2ccc(NC(=O)c3cc(OC)c(OC)cc3NC(=O)c3cc(=O)c4ccccc4o3)cc2)Cc2ccc3c(cnn3C(C)=O)c2)c1 [Compound 252]
< 100 | COc1cc(NC(=O)C2CC(=O)c3ccccc3O2)c(C(=O)Nc2ccc(CCN(Cc3cccc(-n4ccnc4)c3)Cc3cc(OC)c(OC)c(OC)c3)cc2)cc1OC (stereo not shown) [Compound 213]
100 to 250 | COc1cc(NC(=O)c2cc(=O)c3ccccc3o2)c(C(=O)Nc2ccc(CCN(Cc3cccc(-n4ccnc4)c3)CC3CC3)cc2)cc1OC [Compound 9]

Continued, compound first:

Structure (SMILES) | IC50 [nM]
COc1cc2c(cc1OC)CN(CCc1ccc(NC(=O)c3ccc(C(=O)OCc4cccnc4)cc3NC(=O)c3cc(=O)c4ccccc4o3)cc1)CC2 [Compound 80] | 500 to 1000
CCN1CNC=C1CN(CCc1ccc(NC(=O)c2cc(OC)c(OC)cc2NC(=O)c2cc(=O)c3ccccc3o2)cc1)Cc1ccc2cnn(C)c2c1 [Compound 37] | 100 to 250
COC(=O)c1ccc(C(=O)Nc2ccc(CCN(Cc3cccc(-n4ccnc4)c3)Cc3cccc(-n4ccnc4)c3)cc2)c(NC(=O)c2cc(=O)c3ccccc3o2)c1 [Compound 260] | < 100
COCCOc1cncc(CN(CCc2ccc(NC(=O)c3cc(OC)c(OC)cc3NC(=O)c3cc(=O)c4cc(C)ccc4o3)cc2)Cc2ccc3c(c2)c(C)nn3C)c1 [Compound 68] | 100 to 250
COc1cc(NC(=O)c2cc(=O)c3ccccc3o2)c(C(=O)Nc2ccc(CCN(Cc3ccc4c(cnn4C)c3)C(=O)OC(C)(C)C)cc2)cc1OC [Compound 231] | > 1000
COC(=O)c1ccc(C(=O)Nc2ccc(CCN(Cc3ccc4c(cnn4C)c3)Cc3ccc4c(cnn4C)c3)cc2)c(NC(=O)c2cc(=O)c3ccccc3o2)c1 [Compound 257] | > 1000
CN(CCc1ccc(NC(=O)c2ccc(C(=O)OCc3cncs3)cc2NC(=O)c2cc(=O)c3ccccc3o2)cc1)Cc1ccc2c(cnn2C)c1 [Compound 85] | 250 to 500
COc1cncc(CN(CCc2ccc(NC(=O)c3cc(OC)c(OC)cc3NC(=O)c3cnc4ccccc4c3)cc2)Cc2ccc3c(cnn3C)c2)c1 [Compound 51] | 250 to 500
C#Cc1ccc(CN(C)CCc2ccc(NC(=O)c3cc(OC)c(OC)cc3NC(=O)c3cc(=O)c4ccccc4o3)cc2)cc1 [Compound 115] | > 1000
COc1cc(NC(=O)c2cc(=O)c3ccccc3o2)c(C(=O)Nc2ccc(CCN(Cc3cncs3)Cc3cccc4cnn(C)c34)cc2)cc1OC [Compound 200] | > 1000
